Assay results from ChEMBL document CHEMBL1201862, “PubChem BioAssay data set” (2004).
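Protocol summary: plate cells (96-well), add compound at 5 concentrations, incubate 48 h, interpolate endpoints linearly. At the GI50, growth is halved.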 Active and inactive are the calls of the source. Cut-off read from the data, not from the text of the source: active = GI50 up to about 1.1 µM and inactive = higher.

Assays:
Assay in all cases: NCI anticancer screen, dose series, 48 h
HL-60 = system: HL-60
RPMI-8226 = system: RPMI-8226
786-0 = system: 786-0
SF-295 = system: SF-295
DMS-273 = system: DMS-273
M19-MEL = system: M19-MEL
SK-MEL-28 = system: SK-MEL-28
LXFL 529 = system: LXFL 529
OVCAR-5 = system: OVCAR-5
RXF 631 = system: RXF 631
CAKI-1 = system: CAKI-1
DMS-114 = system: DMS-114
HCT-15 = system: HCT-15
OVCAR-8 = system: OVCAR-8
CCRF-CEM = system: CCRF-CEM
SW-620 = system: SW-620
SF-539 = system: SF-539
SK-MEL-5 = system: SK-MEL-5
UACC-62 = system: UACC-62
HOP-92 = system: HOP-92
MOLT-4 = system: MOLT-4
Malme-3M = system: Malme-3M
UO-31 = system: UO-31
EKVX = system: EKVX
SNB-78 = system: SNB-78
HCC 2998 = system: HCC 2998
SK-MEL-2 = system: SK-MEL-2
KM12 = system: KM12
NCI-H23 = system: NCI-H23
A498 = system: A498
COLO 205 = system: COLO 205
ACHN = system: ACHN
UACC-257 = system: UACC-257
KM-20L2 = system: KM-20L2
NCI-H226 = system: NCI-H226
HOP-62 = system: HOP-62
SF-268 = system: SF-268
SNB-75 = system: SNB-75
OVCAR-3 = system: OVCAR-3
NCI-H460 = system: NCI-H460
DLD-1 = system: DLD-1
A549 = system: A549
K562 = system: K562
HT-29 = system: HT-29
U-251 = system: U-251
HOP-18 = system: HOP-18
IGROV-1 = system: IGROV-1
SR = system: SR
SK-OV-3 = system: SK-OV-3
HCT-116 = system: HCT-116
M14 = system: M14
SN12C = system: SN12C
LOX IMVI = system: LOX IMVI
SNB-19 = system: SNB-19
NCI-H522 = system: NCI-H522
XF498 = system: XF498

Measured: GI50

COc1ccc(/C=C\c2cc(OC)c(OC)c(OC)c2)cc1
0.448 nM: HCT-15
active: HL-60 0.244 nM | RPMI-8226 0.49 nM | 786-0 0.395 nM | SF-295 0.185 nM | DMS-273 0.273 nM | M19-MEL < 10 nM | SK-MEL-28 < 10 nM | LXFL 529 0.507 nM | RXF 631 < 10 nM | CAKI-1 < 10 nM | DMS-114 1.3 nM | OVCAR-8 0.832 nM | CCRF-CEM 0.269 nM | SW-620 0.237 nM | SF-539 0.389 nM | SK-MEL-5 < 0.1 nM | UACC-62 < 0.1 nM | HOP-92 12.7 nM | MOLT-4 0.506 nM | Malme-3M 1.84 nM | UO-31 < 10 nM | EKVX 2.64 nM | SNB-78 0.116 nM | HCC 2998 38.5 nM | SK-MEL-2 < 10 nM | KM12 0.124 nM | NCI-H23 0.357 nM | A498 < 10 nM | COLO 205 29.1 nM | ACHN 0.653 nM | UACC-257 < 10 nM | KM-20L2 0.428 nM | NCI-H226 0.499 nM | HOP-62 100 nM | SF-268 0.766 nM | SNB-75 0.237 nM | OVCAR-3 < 0.1 nM | NCI-H460 < 10 nM | DLD-1 0.4 nM | A549 0.51 nM | K562 0.102 nM | HT-29 < 10 nM | U-251 0.284 nM | HOP-18 973 nM | IGROV-1 38.7 nM | SR < 10 nM | SK-OV-3 0.726 nM | HCT-116 0.279 nM | M14 0.24 nM | SN12C 0.843 nM | LOX IMVI 0.632 nM | SNB-19 1.3 nM | NCI-H522 0.364 nM | XF498 0.741 nM
inactive: OVCAR-5 43500 nM
